The values below come from paper PMC12431657, “Discovery and mechanistic insights of dibenzoylmethane as a broad spectrum inhibitor of coronavirus” (PLOS Pathogens, 2025).

Several values for one entry are separate records, joined by “and”; a condition that tells them apart may be missing. Equal entries are not always repeated.

Holding throughout (format): cell-based
The subject of experiment [1] is SARS-CoV-2 variant Delta (B.1.617.2). Nature of the experiment: microbe, parasite or virus in culture. Conditions: for EC50: Severe acute respiratory syndrome coronavirus 2, 24 h, read-out: EC50 B.1.617.2 (293T-AT).
Experiment [2] has as its system SARS-CoV-2 variant Omicron (BA.5). Nature of the experiment: microbe, parasite or virus in culture. Conditions: for EC50: Severe acute respiratory syndrome coronavirus 2, 24 h, read-out: EC50 BA.5 (293T-AT).
For experiment [3] the test system is unchanged.

One may read the EC50 as the concentration that produces a half-maximal response. On to `C/C=C(/C)C(=O)OC(C)(C)[C@@H]1Cc2c(ccc3ccc(=O)oc23)O1` [Columbianadin, columbianadin], for which, in experiment [1], the “B.1.617.2, HEK293T-AT: inhibition at the concentration (Fig2B)” value (“B.1.617.2, HEK293T-AT: inhibition” below) is 99.1 and 99.3; the EC50 was under 80 nM. Moreover, the EC50 in experiment [2] is under 80 nM.
With `O=C(CC(=O)c1ccccc1)c1ccccc1` [DBM, dibenzoylmethane], the EC50 in experiment [1] turned out to be 20800 nM. In experiment [2], the “BA.5, HEK293T-AT: inhibition at the concentration (Fig2B)” value is on record as 97.4; the “inhibitory effect against SARS-CoV-2 BA.5 in HEK293T-AT cells” value is “demonstrated efficacy”; the EC50 is 6630 nM. In addition, in experiment [3], the “inhibitory effect against SARS-CoV-2 BA.5 in Vero E6 cells” value is given as “but not in Vero E6 cells”.
With `CCC(=O)O[C@H]1[C@H](O[C@@H]2[C@@H](C)[C@H](O[C@H]3C[C@@](C)(OC)[C@@H](O)[C@H](C)O3)[C@@H](C)C(=O)O[C@H](CC)[C@@](C)(O)[C@H](O)[C@@H](C)C(=O)[C@H](C)C[C@@]2(C)O)O[C@H](C)C[C@@H]1N(C)C` [Erythromycin estolate, erythromycin estolate, reference compound], in experiment [1], the “B.1.617.2, HEK293T-AT: inhibition” value is 98.9 and 99.6 and 99.2; the EC50 is under 80 nM. The EC50 in experiment [2] is under 80 nM.
For the molecule `CC1=C[C@]23C(=O)[C@@H](C=C(COC(=O)c4ccccc4)[C@@H](O)[C@]2(O)[C@H]1OC(=O)c1ccccc1)[C@H]1[C@@H](C[C@H]3C)C1(C)C` [Ingenol 3,20-dibenzoate, ingenol 3,20-dibenzoate], in experiment [1], the “B.1.617.2, HEK293T-AT: inhibition” value was 81.2 and the EC50 is under 80 nM. Besides, in experiment [2], the EC50 was under 80 nM.
As for `Cc1c([C@H](C)[C@@H]2NC[C@@H](C)C[C@H]2O)ccc2c1C[C@H]1[C@H]2CC=C2C[C@@H](O)CC[C@@]21C` [Veratramine, veratramine], in experiment [1], the “B.1.617.2, HEK293T-AT: inhibition” value was 99.1 and 99.7 and 99.9; the EC50 was under 80 nM. In experiment [2], the “BA.5, HEK293T-AT: inhibition at the concentration (Fig2B)” value stood at 81.3 and the EC50 was under 80 nM.
